According to PubChem BioAssay (NCI):
Values joined by “and” are separate entries in the source; they are usually repeats but may differ in a detail not shown here. Identical values can stand only once.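 Cultured in 96-well plates, cells were exposed to test compound for 48 hours across five concentrations. GI50: concentration for 50% inhibition of growth. TGI: concentration producing complete growth inhibition.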

Experiments:
Experiment in all cases: inhibition of tumour cell growth, NCI panel, 48 h
HCT-15 colon = system: HCT-15 colon
CCRF-CEM leukemia = system: CCRF-CEM leukemia
TK-10 renal = system: TK-10 renal
KM12 colon = system: KM12 colon
COLO 205 colon = system: COLO 205 colon
SK-MEL-2 melanoma = system: SK-MEL-2 melanoma
MDA-MB-435 = system: MDA-MB-435
M14 melanoma = system: M14 melanoma
UACC-62 melanoma = system: UACC-62 melanoma
U251 CNS = system: U251 CNS

| SMILES | GI50 (HCT-15 colon) | TGI (HCT-15 colon) [µM] | GI50 (CCRF-CEM leukemia) | TGI (CCRF-CEM leukemia) [µM] | GI50 (TK-10 renal) | TGI (TK-10 renal) | GI50 (KM12 colon) | TGI (KM12 colon) [µM] | GI50 (COLO 205 colon) | TGI (COLO 205 colon) | GI50 (SK-MEL-2 melanoma) | TGI (SK-MEL-2 melanoma) | GI50 (MDA-MB-435) | TGI (MDA-MB-435) [µM] | GI50 (M14 melanoma) | TGI (M14 melanoma) [µM] | GI50 (UACC-62 melanoma) | TGI (UACC-62 melanoma) | GI50 (U251 CNS) | TGI (U251 CNS) [µM] |
| --- | --- | --- | --- | --- | --- | --- | --- | --- | --- | --- | --- | --- | --- | --- | --- | --- | --- | --- | --- | --- |
| CN(C)CC#Cc1cccc(C(=O)c2cnn(-c3ccc(F)cc3)c2N)c1 | > 23.8 µM | > 25 | > 25 µM | > 25 | > 25 µM | > 25 µM | > 25 µM | > 25 | > 25 µM | > 25 µM | > 25 µM | > 25 µM | 11.9 µM | > 25 | > 25 µM | > 25 | > 25 µM | > 25 µM | > 25 µM | > 25 |
| COc1cccc(/C=C/C(=O)c2cc3c(N)c(C(=O)Nc4cccc(Cl)c4C)sc3nc2C)c1 | 0.51 µM | 1.46 | 0.234 µM | > 50 | 1.53 µM | 8.19 µM | 1.02 µM | 2.8 | 1.38 µM | 3.63 µM | 1.64 µM | 12.9 µM | 0.345 µM | 1.32 | 1.02 µM | 2.78 | 0.844 µM | 3.5 µM | 0.959 µM | 2.05 |
| Cc1c(Cl)cccc1NC(=O)c1sc2nc3c(cc2c1N)CCCCCC3 | 0.156 µM | > 50 | 0.176 µM | > 50 | 10.7 µM | 47.4 µM | 0.197 µM | > 50 | 0.285 µM | > 50 µM | 0.196 µM | 24.2 µM | 0.0761 µM | 0.251 | 0.154 µM | > 50 | 0.205 µM | 46.6 µM | 0.223 µM | 14.3 |
| Cc1c(CN2CCC(Nc3ncnc4sc(CC(F)(F)F)cc34)CC2)ccc2c1cc(C#N)n2Cc1cn[nH]c1 | 2.62 µM and 3.24 µM | 10.3 | 2.98 µM and 2.97 µM | > 33.7 | 11.6 µM and > 35.2 µM | 26.2 µM and > 52.3 µM | 5.36 µM and 3.22 µM | 22.2 | 1.64 µM and 2.05 µM | 3.7 µM and 9.53 µM | 8.97 µM and 9.33 µM | 26.3 µM and 26.5 µM | 1.99 µM and 3.78 µM | 6.15 | 1.77 µM and 3.49 µM | 3.69 | 6.53 µM and 8.73 µM | 24.9 µM and > 44.3 µM | 4.65 µM and 3.16 µM | 19.6 |
| O=C(N/N=C/c1ccc(O)cc1O)c1ccc(Nc2ccnc(C(F)(F)F)c2)cc1 | > 100 µM | > 100 | 0.0913 µM | > 100 | 2.06 µM | > 47.1 µM | > 100 µM | > 100 | 7.61 µM | > 100 µM | > 59.1 µM | > 100 µM | > 100 µM | > 100 | > 100 µM | > 100 | 0.0485 µM | > 100 µM | 0.248 µM | 21.2 |
| CCc1oc2ccccc2c1C(=O)c1cc(Br)c(O)c(Br)c1 | – | 76.2 | – | 55.4 | – | 64.9 µM | – | 55.1 | – | 40.6 µM | – | 45.3 µM | – | > 100 | – | 80.6 | – | 33.6 µM | – | 31 |
| CC(=O)Oc1cccc2c1C(=O)C(Br)(Br)CCC2 | – | 29.4 | – | 9.91 | – | 30.8 µM | – | 23.2 | – | 17.2 µM | – | 21.5 µM | – | 13.4 | – | 8.67 | – | 20.9 µM | – | 23.7 |
| C#CC[C@H](c1nc2cc(Cl)ccc2c(=O)n1Nc1ccccc1)N(CCCN)C(=O)c1cccc(Cl)c1F | 2.15 µM | 5.68 | 0.134 µM | 1.91 | 1.39 µM | 2.8 µM | 0.18 µM | 1.63 | 0.0951 µM | 0.868 µM | 0.177 µM | 1.29 µM | 0.0281 µM | 0.0915 | 0.3 µM | 1.63 | 0.636 µM | 2 µM | 0.293 µM | 1.27 |
| CCOc1cc2ncc(C#N)c(Nc3ccc(F)c(Cl)c3)c2cc1NC(=O)/C=C/CN(C)C | 0.245 µM | 4.07 | 1.13 µM | > 7.16 | 0.00445 µM | 0.506 µM | 1.22 µM | 3.01 | 1.33 µM | 2.83 µM | 0.349 µM | > 3.21 µM | 0.323 µM | 1.42 | 0.312 µM | 1.83 | 0.449 µM | > 5.09 µM | 0.625 µM | > 4.89 |
| Cc1cc2c(C(N)=O)cccc2n1-c1nc2c(c(NCc3ccccc3)n1)CCCN2 | 0.162 µM | 0.467 | 0.295 µM | 19.8 | 0.378 µM | 0.809 µM | 0.195 µM | 0.4 | 0.195 µM | 0.364 µM | 0.112 µM | 0.265 µM | 0.164 µM | 0.322 | 0.212 µM | 0.432 | 0.155 µM | 0.33 µM | 0.179 µM | 0.331 |
| Cc1ccc(NC2=C(Sc3ccc(Cl)cc3)C(=O)N(Cc3ccccc3)C2=O)cc1Cl | 10.6 µM | > 100 | 11.1 µM | 23.1 | 11.7 µM | 68.3 µM | 31.1 µM | > 100 | 31.9 µM | > 100 µM | 13.2 µM | 33.3 µM | 22 µM | > 100 | 3.88 µM | 17.5 | 13.5 µM | 30.5 µM | 3.24 µM | 14 |
| N#CSCC1CC(O)(c2ccccc2)C(c2ccccc2)C(c2ccc(F)cc2)O1 (stereo not given) | 3.05 µM | 10.2 | 3.09 µM | > 100 | 2.38 µM | 6.3 µM | 2.32 µM | 5.85 | 3.13 µM | 9.97 µM | 2.69 µM | 7.78 µM | 1.99 µM | 4.9 | 1.84 µM | 4.09 | 1.9 µM | 5.58 µM | 3.66 µM | 15.1 |
| C=C1C(=O)O[C@@H]2C[C@@H](C)[C@@H]3[C@@H](OC4OC(COC(C)=O)C(O)C(O)C4O)CC(=O)[C@@]3(C)C[C@H]12 (stereo not given in full) | – | 0.582 | – | 16.1 | – | 3.36 µM | – | 22.9 | – | 1.88 µM | – | 20.7 µM | – | 6.03 | – | 2.85 | – | 2.98 µM | – | 19.7 |
| Cn1c(=O)c2[nH]c(COCc3nc4c([nH]3)c(=O)n(C)c(=O)n4C)nc2n(C)c1=O | – | > 100 | – | > 100 | – | > 100 µM | – | > 100 | – | > 100 µM | – | > 100 µM | – | > 100 | – | > 100 | – | > 100 µM | – | > 100 |
| Cn1c2ccccc2c2nnc(N/N=C/c3ccccn3)nc21 | 0.374 µM | > 100 | 0.301 µM | > 33.1 | 0.413 µM | > 57.8 µM | 0.535 µM | > 38.3 | 0.401 µM | 18.5 µM | 0.953 µM | 16.9 µM | 0.459 µM | > 54.6 | 0.285 µM | – | 0.3 µM | 1.03 µM | 0.357 µM | 14 |
| CC1(C)N=C(N)N=C(N)N1c1cccc(CCCCc2ccc(S(=O)(=O)F)cc2Cl)c1 | 4.61 µM | > 100 | 3.29 µM | 36.5 | 8.66 µM | > 100 µM | 1.72 µM | 15.7 | 5.37 µM | 32.9 µM | 6.42 µM | > 58.5 µM | 0.611 µM | 18.5 | 7.55 µM | 28.1 | 0.494 µM | 17.1 µM | 0.722 µM | 20.4 |
| O=C1C(Cl)=C(N2CCOCC2)C(=O)c2ccccc21 | 2.11 µM | 4.33 | 2.53 µM | 6.77 | 16.7 µM | 30.4 µM | 13.7 µM | 27.6 | 14.2 µM | 27.8 µM | 3.82 µM | 11.6 µM | 1.95 µM | 3.72 | 5.62 µM | 18.7 | 3.06 µM | 10.7 µM | 5.07 µM | 17.8 |
| NC(=O)C1=C(c2ccccc2)c2ccccc2C1=O | – | 26.8 | – | 7.71 | – | 32.4 µM | – | 30.9 | – | 38.5 µM | – | 39.7 µM | – | 65.8 | – | 36.8 | – | 32.7 µM | – | 35.1 |
| NC1CCC[C@@H](O)[C@H]1O (stereo not given in full) | – | > 100 | – | > 100 | > 100 µM | > 100 µM | – | > 100 | – | > 100 µM | – | > 100 µM | – | > 100 | – | > 100 | – | > 100 µM | – | > 100 |
| c1ccc2[nH]c(-c3ccc(OCCCCCOc4ccc(-c5nc6ccccc6[nH]5)cc4)cc3)nc2c1 | 1.12 µM | 8.11 | 0.195 µM | 0.54 | 2.05 µM | 3.77 µM | 1.54 µM | 4.17 | 7.83 µM | > 34.5 µM | 6.23 µM | 12.7 µM | 1.63 µM | 3.94 | 1.73 µM | 4.31 | 4.95 µM | 10.8 µM | 1.91 µM | 4.17 |
